Reference: patent US6669951B2, “Compositions and methods for enhancing drug delivery across and into epithelial tissues” (CellGate, Inc., priority 1999, dated 2003)
Where two headings read alike, the source gives them in different places. Square brackets hold non-standard residues; d marks the D form. Peptide text beside a SMILES is read from it. * marks the point of attachment. FITC = O=C1OC2(c3ccc(O)cc3Oc3cc(O)ccc32)c2ccc(NC(=S)*)cc21; Ahx = NCCCCCC(=O)O

Experiments:
Caco-2 cells = experiment: Cellular uptake in Caco-2 cells; format: cell-based, human; details: five minutes; for uptake into Caco-2 cells in suspension (flow cytometry): 50-0.8 μM
Protocol: To analyze the penetration of fluorescent oligomers of D-arginine into the cells when in suspension, the monolayers were treated with trypsin (4.5 ml of a 0.05% solution Gibco, Grand Rapids, Mich.) and the individual cell suspension was spun down.
To analyze the ability of the fluorescent peptides to enter Caco-2 cells when part of a monolayer, the cells were seeded in lab-tek flaskette microscope slides (Nalge Nunc Int., Naperville, Ill.) in 4 ml at a density of 60,000 cells/ml and grown for 21 days with the media being changed every other day. […] The monolayer was subsequently washed with PBS/2% FBS twice to remove labeled peptide and analyzed using fluorescent microscopy.
Varying concentrations of the taxol conjugates (50-0.08 μM) were added to the apical side and exposed to the monolayer of Caco-2 cells for three minutes. The membrane was removed from the apparatus, the cells trypsinized, and the resulting cell suspension was analyzed by flow cytometry (FIG. 33).

Jurkat cells [1] = experiment: FACS cellular uptake assay; format: cell-based, human; details: 4 min, 23° C.
Protocol: (§1) The accuracy of this method for determining concentration was established by weighing selected samples and dissolving them in a known amount of PBS buffer. The concentrations determined by UV spectroscopy correlated with the amounts weighed out manually. Jurkat cells (human T cell line), murine B cells (CH27), or human PBL cells were grown in 10% fetal calf serum and DMEM and each of these were used for cellular uptake experiments. […] The microtiter plates were centrifuged and the cells were isolated, washed with cold PBS (3×250 μL), incubated with 0.05% trypsin/0.53 mM EDTA at 37° C. for 5 min, washed with cold PBS, and resuspended in PBS containing 0.1% propidium iodide. The cells were analyzed using fluorescent flow cytometry (FACScan, Becton Dickinson) and cells staining with propidium iodide were excluded from the analysis. The data presented is the mean fluorescent signal for the 5000 cells collected.
Inhibition of Cellular Uptake with Sodium Azide. The assays were performed as previously described with the exception that the cells used were preincubated for 30 min with 0.5% sodium azide in 2% FCS/PBS buffer prior to the addition of fluorescent peptides and the cells were washed with 0.5% sodium azide in PBS buffer. All of the cellular uptake assays were run in parallel in the presence and absence of sodium azide.
To determine the structural requirements for the cellular uptake of short arginine-rich peptides, a series of fluorescently-labeled truncated analogues of Tat49-57 were synthesized using standard solid-phase chemistry. See, e.g., Atherton, E. et al. SOLID-PHASE PEPTIDE […] (IRL: Oxford, Engl. 1989). A fluorescein moiety was attached via an aminohexanoic acid spacer on the amino termini. The ability of these fluorescently labeled peptides to enter Jurkat cells was then analyzed using fluorescent activated cell sorting (FACS). The peptide constructs tested were Tat49-57 (Fl-ahx-[…]; SEQ ID NO:8): Tat49-56 (Fl-ahx-[…]; SEQ ID NO:9), Tat49-55 (Fl-ahx-RKKRRQR; SEQ ID NO: 10), Tat50-57 (Fl-ahx-[…]; SEQ ID NO: 11), and Tat51-57 (Fl-ahx-KRRQRRR; SEQ ID NO: 12). Differentiation between cell surface binding and internalization was accomplished throughout by running a parallel set of assays in the presence and absence of sodium azide. Because sodium azide inhibits energy-dependent cellular uptake but not cell surface binding, the difference in fluorescence between the two assays provided the amount of fluorescence resulting from internalization.

Jurkat cells [2] = experiment: Cellular uptake kinetics assay (Michaelis-Menton); format: cell-based, human; design: Vmax: unit not given here
Protocol: as §1
Cellular Uptake Kinetics Assay. The assays were performed as previously described except the cells were incubated for 0.5, 1, 2, and 4 min at 4° C. in triplicate in 2% FCS/PBS (50 μl) in microtiter plates (96 well). The reactions were quenched by diluting the samples into 2% FCS/PBS (5 mL). The assays were then worked up and analyzed by fluorescent flow cytometry as previously described.
The rates of cellular uptake were determined after incubation (3° C.) of the peptides in Jurkat cells for 30, 60, 120, and 240 seconds (Table 1).

skin of Balb/C mice = details: mouse, in vivo
Protocol: Slides were analyzed by fluorescent microscopy.

[3] = test system: human skin grafts on SCID mice; details: in vivo
Protocol: Samples (100 μl) were applied as a liquid within excipient and prevented from dispersing by a Vaseline™ barrier and allowed to penetrate for fifteen minutes. At the end of this period animal was sacrificed, the relevant section of skin was excised, embedded in mounting medium (OCT) and frozen. […] Slides were analyzed by fluorescent microscopy.

skin of nude mice = experiment: Penetration of biotinylated conjugates into skin of nude mice (streptavidin staining); details: for penetration into skin (streptavidin staining): mouse, in vivo; for penetration of drug conjugates into skin: 1 mM-100 μM in PBS, nude mice, thirty, sixty, 120 minutes
Protocol: Samples (100 μl) were applied as a liquid without excipient, prevented from dispersing by a Vaseline™ barrier, and allowed to penetrate for fifteen minutes. At the end of this period the animal was sacrificed, the relevant sections of skin were excised, embedded in mounting medium (OCT), and frozen. Frozen sections (5 microns) were cut using a cryostat, collected on slides, and stained with fluorescently labeled streptavidin (Vector Laboratories, Burlingame, Calif.). The slides were fixed in acetone at 4° C. for ten minutes, air dried, soaked in PBS for five minutes, blocked with normal goat serum for five minutes, and washed with PBS for five minutes. The section was stained by incubation with fluorescently labeled streptavidin at 30 μg/ml for thirty minutes, washed with PBS, counterstained with propidium iodide (1 μg/ml) for two minutes, and the section was mounted with Vectashield™ mounting media. Slides were analyzed by fluorescent microscopy. Parallel studies were done using streptavidin-horse radish peroxidase rather than fluorescein-streptavidin. The biotinylated peptide was visualized by treatment of the sections with the horseradish peroxidase substrate diaminobenzadine, and visualization with light microscopy.
Alternatively, sample (100 μl) was applied as a liquid without excipient and prevented from evaporating by wrapping plastic wrap over the sample sealed with Vaseline™. […] At the end of this period animal was sacrificed, the relevant section of skin was excised, embedded in mounting medium (OCT) and frozen. […] Slides were analyzed by fluorescent microscopy.
At the end of this period animal was sacrificed, the relevant section of skin was excised, embedded in mounting medium (OCT) and frozen. […] Slides were analyzed by fluorescent microscopy
(§2) At the end of this period animal was sacrificed, the relevant section of skin was excised, embedded in mounting medium (OCT) and frozen. […] Slides were analyzed by fluorescent microscopy.
as §2

[4] = Half-life / release of conjugate in buffer; format: physicochemical
[5] = Jurkat cells, incubation 30, 60, 120, 240 seconds, 3° C.

NCCCC[C@@H](NC(=O)[C@@H](CCCCN)NC(=O)[C@@H](CCCCN)NC(=O)[C@@H](CCCCN)NC(=O)[C@@H](CCCCN)NC(=O)[C@@H](CCCCN)NC(=O)[C@@H](CCCCN)NC(=O)CCCCCNC(=S)Nc1ccc2c(c1)C(=O)OC21c2ccc(O)cc2Oc2cc(O)ccc21)C(N)=O [Fl aca k7, reference compound] ({FITC-Ahx}-[dK][dK][dK][dK][dK][dK][dK]-NH2)
uptake into Caco-2 cells in suspension (flow cytometry) (Caco-2 cells): All the polymers of arginine entered cells more effectively than the nonamers of lysine

N=C(N)NCCC[C@@H](NC(=O)[C@@H](CCCNC(=N)N)NC(=O)[C@@H](CCCNC(=N)N)NC(=O)[C@@H](CCCNC(=N)N)NC(=O)[C@@H](CCCNC(=N)N)NC(=O)[C@@H](CCCNC(=N)N)NC(=O)[C@@H](CCCNC(=N)N)NC(=O)[C@@H](CCCNC(=N)N)NC(=O)[C@@H](CCCNC(=N)N)NC(=O)CCCCCNC(=S)Nc1ccc2c(c1)C(=O)OC21c2ccc(O)cc2Oc2cc(O)ccc21)C(N)=O [r9]
cellular uptake compared with d-arginine oligomers / other peptoids (Jurkat cells [1]): comparable to N-btg9 | relative order of cellular uptake (Jurkat cells [1]; peptoids and d-arginine oligomers): N-hxg9 (6 methylene)>N-btg9 (4 methylene)>r9 (3 methylene)>N-arg9 (3 methylene)>N-etg9 (2 methylene) | Km values fold greater / fold better than Tat49-57 (Jurkat cells [2]; Discussion): 100 fold | Km (Jurkat cells [2]; [5]): 7.6 µM | Vmax (Jurkat cells [2]; [5]): 0.38 | rate of entering cells, fold faster than Tat47-59 (Jurkat cells [2]; from Km values, Jurkat cells): approximately 100 fold | uptake into Caco-2 monolayer on microscope slide (Caco-2 cells; 50 μM, fluorescent microscopy): virtually every cell in the monolayer was fluorescent after five minutes | uptake into Caco-2 cells in suspension (flow cytometry) (Caco-2 cells): r9 being more effective than r7, which was more effective than r5

O=C(O)CCCC[C@@H]1SC[C@@H]2NC(=O)N[C@@H]21 [biotin, reference compound]
penetration into skin (skin of Balb/C mice): no staining was apparent | penetration into human skin [3]: no staining was apparent | penetration into skin (streptavidin staining) (skin of nude mice): no staining was apparent

N=C(N)NCCC[C@H](NC(=O)[C@H](CCCNC(=N)N)NC(=O)[C@H](CCCNC(=N)N)NC(=O)[C@H](CCCNC(=N)N)NC(=O)[C@H](CCCNC(=N)N)NC(=O)[C@H](CCCNC(=N)N)NC(=O)[C@H](CCCNC(=N)N)NC(=O)CCCCCNC(=S)Nc1ccc2c(c1)C(=O)OC21c2ccc(O)cc2Oc2cc(O)ccc21)C(N)=O [R7, F1-ahx-RRRRRRR]
uptake into Caco-2 cells in suspension (flow cytometry) (Caco-2 cells): r9 being more effective than r7, which was more effective than r5

N=C(N)NCCC[C@H](NC(=O)[C@H](CCCNC(=N)N)NC(=O)[C@H](CCCNC(=N)N)NC(=O)[C@H](CCCNC(=N)N)NC(=O)[C@H](CCCNC(=N)N)NC(=O)CCCCCNC(=S)Nc1ccc2c(c1)C(=O)OC21c2ccc(O)cc2Oc2cc(O)ccc21)C(N)=O [R5, F1-ahx-RRRRR] ({FITC-Ahx}-RRRRR-NH2)
uptake into Caco-2 cells in suspension (flow cytometry) (Caco-2 cells): r9 being more effective than r7, which was more effective than r5

C/C=C/C[C@@H](C)[C@@H](OC(=O)CN(Cc1ccccc1)C(=O)CNCC(=O)N[C@H](CCCNC(=N)N)C(=O)N[C@H](CCCNC(=N)N)C(=O)N[C@H](CCCNC(=N)N)C(=O)N[C@H](CCCNC(=N)N)C(=O)N[C@H](CCCNC(=N)N)C(=O)N[C@H](CCCNC(=N)N)C(=O)N[C@H](CCCNC(=N)N)C(=O)O)[C@H]1C(=O)N[C@@H](CC)C(=O)N(C)CC(=O)N(C)[C@@H](CC(C)C)C(=O)N[C@@H](C(C)C)C(=O)N(C)[C@@H](CC(C)C)C(=O)N[C@@H](C)C(=O)N[C@H](C)C(=O)N(C)[C@@H](CC(C)C)C(=O)N(C)[C@@H](CC(C)C)C(=O)N(C)[C@@H](C(C)C)C(=O)N1C [CGC1072]
half-life ([4]; PBS pH 7.4 (37° C. where stated)): approximately ninety | half-life ([4]; buffer, PBS, pH 7.4 at 37° C., read-out: half life (converted)): 1.5 h

CC(=O)O[C@H]1C(=O)[C@@]2(C)[C@H]([C@H](OC(=O)c3ccccc3)[C@]3(O)C[C@H](OC(=O)[C@H](OC(=O)NCCCC[C@H](NC(=O)[C@@H](CCCNC(=N)N)NC(=O)[C@@H](CCCNC(=N)N)NC(=O)[C@@H](CCCNC(=N)N)NC(=O)[C@@H](CCCNC(=N)N)NC(=O)[C@@H](CCCNC(=N)N)NC(=O)[C@@H](CCCNC(=N)N)NC(=O)[C@@H](CCCNC(=N)N)NC(=O)CCCCCNC(=O)CCCC[C@@H]4SC[C@@H]5NC(=O)N[C@@H]54)C(N)=O)[C@@H](NC(=O)c4ccccc4)c4ccccc4)C(C)=C1C3(C)C)[C@]1(OC(C)=O)CO[C@@H]1C[C@@H]2O [B-aca-r7-K-taxol]
penetration of drug conjugates into skin (skin of nude mice): effectively entered into and across the epidermis and into the dermis of the skin of nude mice

CC(=O)O[C@H]1C(=O)[C@@]2(C)[C@H]([C@H](OC(=O)c3ccccc3)[C@]3(O)C[C@H](OC(=O)[C@H](OC(=O)NCCCC[C@H](NC(=O)[C@@H](CCCNC(=N)N)NC(=O)[C@@H](CCCNC(=N)N)NC(=O)[C@@H](CCCNC(=N)N)NC(=O)[C@@H](CCCNC(=N)N)NC(=O)[C@@H](CCCNC(=N)N)NC(=O)[C@@H](CCCNC(=N)N)NC(=O)[C@@H](CCCNC(=N)N)NC(=O)[C@@H](CCCNC(=N)N)NC(=O)[C@@H](CCCNC(=N)N)NC(=O)CCCCCNC(=O)CCCC[C@@H]4SC[C@@H]5NC(=O)N[C@@H]54)C(N)=O)[C@@H](NC(=O)c4ccccc4)c4ccccc4)C(C)=C1C3(C)C)[C@]1(OC(C)=O)CO[C@@H]1C[C@@H]2O [B-aca-r9-K-taxol]
penetration of drug conjugates into skin (skin of nude mice): effectively entered into and across the epidermis and into the dermis of the skin of nude mice

N=C(N)NCCC[C@@H](NC(=O)[C@@H](CCCNC(=N)N)NC(=O)[C@@H](CCCNC(=N)N)NC(=O)[C@@H](CCCNC(=N)N)NC(=O)[C@@H](CCCNC(=N)N)NC(=O)[C@@H](CCCNC(=N)N)NC(=O)[C@@H](CCCNC(=N)N)NC(=O)CCCCCNC(=O)CCCC[C@@H]1SC[C@@H]2NC(=O)N[C@@H]21)C(N)=O [Biotinylated arginine heptamer]
penetration into skin (skin of Balb/C mice): crossed into and across the epidermis and into the dermis | penetration into human skin [3]: crossed into and across the epidermis and into the dermis of the human skin | penetration into skin (streptavidin staining) (skin of nude mice): crossed into and across the epidermis and into the dermis
